Source: DBAASP
Converted amounts (≈) assume the structure as drawn. “And” between values parts separate entries of the source, which are not always exact repeats. Identical values can stand only once. Blank lines part the entries; values can stand above or below the compound they belong to.

Experiments:
Assay in all cases: ≥ marks a high value that may be exact or a test limit, other limits are often not marked, values filed in µg/mL are converted to µM
[1] = tested on: Escherichia coli ATCC 25922
[2] = tested on: Staphylococcus aureus ATCC 25923
[3] = tested on: Pseudomonas aeruginosa ATCC 27853
[4] = tested on: Acinetobacter baumannii ATCC 19606
[5] = tested on: Pseudomonas aeruginosa PAO1
[6] = tested on: Klebsiella pneumoniae ATCC 13883
[7] = tested on: Staphylococcus aureus USA 300
[8] = tested on: Enterococcus faecalis ATCC 29212
[9] = tested on: Klebsiella pneumoniae ATCC 700603
[10] = tested on: Staphylococcus epidermidis ATCC 12228
[11] = tested on: Bacillus subtilis ATCC 23857
[12] = tested on: Pseudomonas aeruginosa
[13] = tested on: Staphylococcus aureus
[14] = tested on: Escherichia coli B
[15] = tested on: Bacillus subtilis 168
[16] = tested on: Pseudomonas aeruginosa ATCC 9027
[17] = tested on: Acinetobacter baumannii
[18] = tested on: Salmonella enterica subsp. enterica serovar Typhimurium ATCC 14028

MIC [16]: 64 µM (≈ 90.2 µg/mL)
MIC [1]: 64 µM (≈ 90.2 µg/mL)
MIC [9]: 128 µM (≈ 180 µg/mL)
MIC [2]: > 128 µM
MIC [11]: 8 µM (≈ 11.3 µg/mL)
SMILES: CC[C@H](C)[C@H](NC(=O)[C@H](CCCCN)NC(=O)[C@H](CCCCN)NC(=O)[C@H](C)NC(=O)[C@@H](NC(=O)[C@H](C)NC(=O)[C@H](C)NC(=O)[C@H](CC(C)C)NC(=O)[C@H](C)NC(=O)[C@H](CCCCN)NC(=O)[C@H](CC(C)C)NC(=O)[C@H](CC(N)=O)NC(=O)CN)C(C)C)C(=O)N[C@@H](CC(C)C)C(N)=O [GNLKALAAVAKKIL]

MIC [12]: 100 µM (≈ 153 µg/mL)
MIC [13]: 38.3 µM (≈ 58.7 µg/mL)
MIC [14]: 3.5 µM (≈ 5.37 µg/mL)
MIC [15]: 1.5 µM (≈ 2.3 µg/mL)
SMILES: CC[C@H](C)[C@H](NC(=O)[C@H](Cc1cnc[nH]1)NC(=O)[C@H](CCCCN)NC(=O)[C@H](CC(C)C)NC(=O)[C@H](CC(C)C)NC(=O)[C@H](CO)NC(=O)[C@H](CCSC)NC(=O)[C@H](Cc1c[nH]c2ccccc12)NC(=O)[C@H](CCCCN)NC(=O)[C@@H](N)Cc1cnc[nH]1)C(=O)N[C@@H](CC(C)C)C(=O)N[C@@H](CCCCN)C(N)=O [HKWMSLLKHILK]

MIC [4]: 2.22 µM (≈ 7.07 µg/mL)
MIC [17]: 3.14 µM (≈ 10 µg/mL)
SMILES: CC[C@H](C)[C@H](NC(=O)[C@H](CCCN=C(N)N)NC(=O)[C@@H](NC(=O)[C@@H](NC(=O)[C@@H]1CCCN1C(=O)[C@@H](NC(=O)[C@@H](NC(=O)[C@@H](NC(=O)[C@@H]1CCCN1C(=O)CNC(=O)[C@H](Cc1ccc(O)cc1)NC(=O)[C@H](CCCCN)NC(=O)[C@H](CCCCN)NC(=O)[C@H](Cc1c[nH]c2ccccc12)NC(=O)[C@H](C)NC(=O)[C@H](CCCN=C(N)N)NC(=O)[C@H](CC(C)C)NC(=O)[C@@H](NC(=O)[C@H](CCCCN)NC(=O)[C@H](CCCN=C(N)N)NC(=O)CNC(=O)[C@H](CC(C)C)NC(=O)[C@H](CCCCN)NC(=O)[C@H](CCCN=C(N)N)NC(=O)[C@H](CC(C)C)NC(=O)CNC(=O)[C@@H](N)CCCCN)[C@@H](C)CC)[C@@H](C)CC)[C@@H](C)CC)C(C)C)[C@@H](C)CC)[C@@H](C)CC)C(=O)O [KGLRKLGRKILRAWKKYGPIIVPIIRI]

MIC [16]: 8 µM (≈ 12.2 µg/mL)
MIC [1]: 8 µM (≈ 12.2 µg/mL)
MIC [9]: 16 µM (≈ 24.4 µg/mL)
MIC [2]: 64 µM (≈ 97.4 µg/mL)
MIC [11]: 8 µM (≈ 12.2 µg/mL)
SMILES: CC[C@H](C)[C@H](NC(=O)[C@H](CCCCN)NC(=O)[C@H](CCCCN)NC(=O)[C@H](C)NC(=O)[C@@H](NC(=O)[C@H](C)NC(=O)[C@H](CC(C)C)NC(=O)[C@H](CC(C)C)NC(=O)[C@H](C)NC(=O)[C@H](CCCCN)NC(=O)[C@H](CC(C)C)NC(=O)[C@H](CC(N)=O)NC(=O)[C@@H](N)CCCCN)C(C)C)C(=O)N[C@@H](CC(C)C)C(N)=O [KNLKALLAVAKKIL]

MIC [16]: 32 µM (≈ 46.4 µg/mL)
MIC [1]: 32 µM (≈ 46.4 µg/mL)
MIC [9]: 64 µM (≈ 92.9 µg/mL)
MIC [2]: 128 µM (≈ 186 µg/mL)
MIC [11]: ≥ 32 µM
SMILES: CC[C@H](C)[C@H](NC(=O)[C@H](CCCCN)NC(=O)[C@H](CCCCN)NC(=O)[C@H](C)NC(=O)[C@@H](NC(=O)[C@H](C)NC(=O)CNC(=O)[C@H](CC(C)C)NC(=O)[C@H](C)NC(=O)[C@H](CCCCN)NC(=O)[C@H](CC(C)C)NC(=O)[C@H](CC(N)=O)NC(=O)[C@@H](N)CC(C)C)C(C)C)C(=O)N[C@@H](CC(C)C)C(N)=O [LNLKALGAVAKKIL]

MIC [12]: 100 µM (≈ 105 µg/mL)
MIC [13]: 100 µM (≈ 105 µg/mL)
MIC [14]: ≥ 100 µM
MIC [15]: ≥ 100 µM
SMILES: CSCC[C@H](NC(=O)[C@H](Cc1cnc[nH]1)NC(=O)[C@H](C)NC(=O)[C@H](CCSC)NC(=O)[C@@H](NC(=O)[C@H](CCCCN)NC(=O)[C@@H]1CCCN1C(=O)[C@@H](N)CC(C)C)C(C)C)C(=O)N[C@@H](CCCCN)C(N)=O [LPKVMAHMK]

MIC [14]: ≥ 100 µM
MIC [15]: ≥ 100 µM
SMILES: CSCC[C@H](NC(=O)[C@H](Cc1cnc[nH]1)NC(=O)[C@H](C)NC(=O)[C@H](CCSC)NC(=O)[C@@H](NC(=O)[C@H](CCCCN)NC(=O)[C@@H]1CCCN1)C(C)C)C(=O)N[C@@H](CCCCN)C(N)=O [PKVMAHMK]

MIC [18]: 14.8 µM and 30 µM
MIC [5]: > 30 µM
MIC [6]: 30 µM (≈ 56.7 µg/mL)
MIC [1]: 22.2 µM and 30 µM
MIC [2]: > 30 µM
MIC [4]: > 30 µM
SMILES: CC(C)C[C@H](NC(=O)[C@H](C)NC(=O)[C@H](CCCN=C(N)N)NC(=O)[C@H](CCCN=C(N)N)NC(=O)[C@H](Cc1ccccc1)NC(=O)[C@H](C)NC(=O)[C@H](Cc1c[nH]c2ccccc12)NC(=O)CNC(=O)[C@H](CCCN=C(N)N)NC(=O)[C@@H](N)CCCN=C(N)N)C(=O)N[C@@H](C)C(=O)N[C@@H](Cc1ccc(O)cc1)C(=O)NCC(=O)N[C@@H](CCCN=C(N)N)C(=O)N[C@@H](CCCN=C(N)N)C(N)=O [RRGWAFRRALAYGRR]

Further lines, the compound ahead of its results:

SMILES: CC(C)C[C@H](NC(=O)[C@H](CC(C)C)NC(=O)[C@H](CCCCN)NC(=O)[C@H](CCCCN)NC(=O)[C@H](CC(C)C)NC(=O)[C@H](CS)NC(=O)[C@H](CCCCN)NC(=O)[C@H](CC(C)C)NC(=O)[C@@H](N)Cc1ccccc1)C(N)=O [FLKCLKKLL]
MIC [1]: 14.5 µM (≈ 16 µg/mL)
MIC [2]: 57.9 µM (≈ 63.9 µg/mL)
MIC [3]: 14.5 µM (≈ 16 µg/mL)
MIC [4]: 14.5 µM (≈ 16 µg/mL)

SMILES: CC(C)C[C@H](NC(=O)[C@H](C)NC(=O)[C@H](CCCCN)NC(=O)CNC(=O)[C@H](CC(C)C)NC(=O)[C@H](C)NC(=O)[C@H](CCCCN)NC(=O)[C@H](CC(C)C)NC(=O)[C@H](C)NC(=O)[C@H](CO)NC(=O)[C@H](CC(C)C)NC(=O)[C@H](C)NC(=O)CN)C(N)=O [GALSALKALGKAL]
MIC [5]: > 25 µM
MIC [6]: 25 µM (≈ 30.3 µg/mL)
MIC [1]: > 25 µM
MIC [7]: 25 µM (≈ 30.3 µg/mL)

SMILES: CC(C)C[C@H](NC(=O)[C@H](CC(C)C)NC(=O)[C@H](CCCCN)NC(=O)CNC(=O)[C@H](CC(C)C)NC(=O)[C@H](C)NC(=O)[C@H](CCCCN)NC(=O)[C@H](CC(C)C)NC(=O)[C@H](C)NC(=O)[C@H](CO)NC(=O)[C@H](CC(C)C)NC(=O)[C@H](C)NC(=O)CN)C(N)=O [GALSALKALGKLL]
MIC [5]: > 25 µM
MIC [6]: 25 µM (≈ 31.3 µg/mL)
MIC [1]: 25 µM (≈ 31.3 µg/mL)
MIC [7]: 25 µM (≈ 31.3 µg/mL)

SMILES: C[C@@H](O)[C@H](NC(=O)[C@H](CCCCN)NC(=O)[C@H](Cc1c[nH]c2ccccc12)NC(=O)[C@H](CCCN=C(N)N)NC(=O)[C@H](CCCCN)NC(=O)[C@H](Cc1ccccc1)NC(=O)[C@H](Cc1ccccc1)NC(=O)CN)C(=O)N[C@@H](Cc1ccccc1)C(=O)N[C@@H](Cc1ccccc1)C(N)=O [GFFKRWKTFF]
MIC [8]: 64 µM (≈ 87.2 µg/mL)
MIC [1]: 16 µM (≈ 21.8 µg/mL)
MIC [9]: 32 µM (≈ 43.6 µg/mL)
MIC [2]: 16 µM (≈ 21.8 µg/mL)
MIC [10]: 4 µM (≈ 5.45 µg/mL)
MIC [3]: 8 µM (≈ 10.9 µg/mL)
MIC [11]: 16 µM (≈ 21.8 µg/mL)
MIC [4]: 64 µM (≈ 87.2 µg/mL)

SMILES: CC[C@H](C)[C@H](NC(=O)CNC(=O)[C@H](C)NC(=O)[C@@H](NC(=O)[C@@H](NC(=O)CN)[C@@H](C)CC)[C@@H](C)CC)C(=O)NCC(=O)N[C@H](C(=O)N[C@@H](CCCCN)C(=O)N[C@H](C(=O)N[C@@H](CCCCN)C(=O)N[C@@H](CCCCN)C(N)=O)[C@@H](C)CC)[C@@H](C)CC [GIIAGIGIKIKK]
MIC [1]: 64 µM (≈ 77.4 µg/mL)
MIC [11]: ≥ 128 µM

SMILES: CC[C@H](C)[C@H](NC(=O)CN)C(=O)N[C@H](C(=O)N[C@@H](C)C(=O)NCC(=O)N[C@H](C(=O)N[C@H](C(=O)N[C@H](C(=O)N[C@@H](CCCCN)C(=O)N[C@@H](C)C(=O)N[C@@H](CCCCN)C(=O)N[C@@H](CCCCN)C(N)=O)[C@@H](C)CC)[C@@H](C)CC)[C@@H](C)CC)[C@@H](C)CC [GIIAGIIIKAKK]
MIC [1]: 128 µM (≈ 157 µg/mL)
MIC [11]: ≥ 64 µM

SMILES: CC(C)C[C@H](NC(=O)[C@H](CC(C)C)NC(=O)[C@H](CCCCN)NC(=O)CNC(=O)[C@H](CC(C)C)NC(=O)[C@H](CC(C)C)NC(=O)[C@H](CO)NC(=O)[C@H](C)NC(=O)[C@H](CC(C)C)NC(=O)[C@H](CO)NC(=O)[C@H](CC(C)C)NC(=O)[C@H](CC(C)C)NC(=O)CN)C(N)=O [GLLSLASLLGKLL]
MIC [5]: 8.8 µM (≈ 11.4 µg/mL)
MIC [6]: 3.1 µM (≈ 4.02 µg/mL)
MIC [1]: 2.16 µM (≈ 2.8 µg/mL)
MIC [7]: 0.78 µM (≈ 1.01 µg/mL)

SMILES: CC(C)C[C@H](NC(=O)[C@H](CC(C)C)NC(=O)[C@H](CCCCN)NC(=O)CNC(=O)[C@H](CC(C)C)NC(=O)[C@H](CO)NC(=O)[C@H](CC(C)C)NC(=O)[C@H](CO)NC(=O)[C@H](CC(C)C)NC(=O)[C@H](CC(C)C)NC(=O)CN)C(N)=O [GLLSLSLGKLL]
MIC [5]: > 25 µM
MIC [6]: 25 µM (≈ 27.8 µg/mL)
MIC [1]: > 25 µM
MIC [7]: 25 µM (≈ 27.8 µg/mL)

SMILES: CC[C@H](C)[C@H](NC(=O)[C@H](CC(C)C)NC(=O)[C@H](Cc1cnc[nH]1)NC(=O)CNC(=O)[C@H](CC(C)C)NC(=O)[C@@H](NC(=O)[C@H](CCCCN)NC(=O)[C@@H]1CCCN1C(=O)[C@H](Cc1c[nH]c2ccccc12)NC(=O)[C@H](CCSC)NC(=O)CN)[C@@H](C)CC)C(=O)N[C@@H](CCCN=C(N)N)C(N)=O [GMWPKILGHLIR]
MIC [12]: > 100 µM
MIC [13]: 75 µM (≈ 106 µg/mL)
MIC [14]: ≥ 33.3 µM
MIC [15]: 3 µM (≈ 4.26 µg/mL)
